Laboratory results taken from patent publication US7846928B2, “Substituted pyrazolopyridines and salts thereof, pharmaceutical compositions comprising same, methods of preparing same and uses of same” (Bayer Schering Pharma AG, priority 2006, dated 2010).

What was measured:
[1] = target: T1, human insuline receptor (Ins-R) kinase domain (Homo sapiens, UniProt P06213); experiment: InsR HTRF assay (assay 4); format: biochemical; conditions: IC50 assay 4/IC50 assay 2
T1 construct: GST-tagged recombinant kinase domain of the human insuline receptor; GST; purchased ProQinase, Freiburg, Germany; host or cells: SF-9 cells
T1 sequence (P06213 1023-1298 limits assumed): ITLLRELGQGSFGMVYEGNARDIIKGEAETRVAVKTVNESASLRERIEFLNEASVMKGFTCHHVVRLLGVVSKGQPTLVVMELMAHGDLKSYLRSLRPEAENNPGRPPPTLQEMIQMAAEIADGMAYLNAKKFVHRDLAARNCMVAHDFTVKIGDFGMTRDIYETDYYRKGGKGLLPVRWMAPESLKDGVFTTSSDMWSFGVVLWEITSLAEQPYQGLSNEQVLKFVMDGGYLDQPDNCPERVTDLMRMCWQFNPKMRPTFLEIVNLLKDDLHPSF
Procedure: Inhibitory activity of compounds against the kinase activity of the insulin receptor was quantified employing the Ins-R HTRF assay as described in the following paragraphs.
GST-tagged recombinant kinase domain of the human insuline receptor (Ins-R, purchase from ProQinase, Freiburg, Germany) expressed in SF-9 cells was used as kinase. As substrate for the kinase reaction biotinylated poly-(Glu,Tyr) (Cis biointernational, France) was used.
Ins-R was incubated for 20 min at 22° C. in the presence of different concentrations of test compounds in 5 μl assay buffer [50 mM Hepes/NaOH pH 7, 15 mM MnCl2, 1 mM dithiothreitol, 0.1 μM sodium ortho-vanadate, 0.015% (v/v) PEG20000, 10 μM adenosine-tri-phosphate (ATP), 0.3 μg/ml substrate, 1% (v/v) dimethylsulfoxide]. The concentration of Ins-R was adjusted depending of the activity of the enzyme lot and was chosen appropriate to have the assay in the linear range, typical concentrations were in the range of 10 pg/μl. The reaction was stopped by the addition of 5 μl of a solution of HTRF detection reagents (0.1 μM streptavidine-XLent and 1 nM PT66-Eu-Chelate, an europium-chelate labelled anti-phosphotyrosine antibody from Perkin Elmer) in an aqueous EDTA-solution (80 mM EDTA, 0.2% (w/v) bovine serum albumin in 50 mM HEPES/NaOH pH 7.0).
The resulting mixture was incubated 1 h at 22° C. to allow the binding of the biotinylated phosphorylated peptide to the streptavidine-XLent and the PT66-Eu-Chelate. Subsequently the amount of phosphorylated substrate was evaluated by measurement of the resonance energy transfer from the PT66-Eu-Chelate to the streptavidine-XLent. Therefore, the fluorescence emissions at 620 nm and 665 nm after excitation at 350 nm was measured in a HTRF reader, e.g. a Rubystar (BMG Labtechnologies, Offenburg, Germany) or a Viewlux (Perkin-Elmer). The ratio of the emissions at 665 nm and at […] was taken as the measure for the amount of phosphorylated substrate. The data were normalised (enzyme reaction without inhibitor=0% inhibition, all other assay components but no enzyme=100% inhibition) and IC50 values were calculated by a 4 parameter fit using an inhouse software.

[2] = target: Tie2 (Homo sapiens, UniProt Q02763); experiment: Tie2 ELISA assay (assay 1): cellular Tie2 autophosphorylation in Tie2-transfected CHO cells stimulated by angiopoietin-2; format: cell-based; design: expressed in transfected cells; host or cells: CHO (DHFR-deficient), stably transfected: CHO Tie2/DHFR; conditions: CHO Tie2/DHFR cells, Ang2 stimulated, Tie2 autophosphorylation sandwich-ELISA; pIC50 = -log IC50 molar; read-out: Tie 2 activity (assay 1)
Sequence of Tie2 (Q02763 23-1124): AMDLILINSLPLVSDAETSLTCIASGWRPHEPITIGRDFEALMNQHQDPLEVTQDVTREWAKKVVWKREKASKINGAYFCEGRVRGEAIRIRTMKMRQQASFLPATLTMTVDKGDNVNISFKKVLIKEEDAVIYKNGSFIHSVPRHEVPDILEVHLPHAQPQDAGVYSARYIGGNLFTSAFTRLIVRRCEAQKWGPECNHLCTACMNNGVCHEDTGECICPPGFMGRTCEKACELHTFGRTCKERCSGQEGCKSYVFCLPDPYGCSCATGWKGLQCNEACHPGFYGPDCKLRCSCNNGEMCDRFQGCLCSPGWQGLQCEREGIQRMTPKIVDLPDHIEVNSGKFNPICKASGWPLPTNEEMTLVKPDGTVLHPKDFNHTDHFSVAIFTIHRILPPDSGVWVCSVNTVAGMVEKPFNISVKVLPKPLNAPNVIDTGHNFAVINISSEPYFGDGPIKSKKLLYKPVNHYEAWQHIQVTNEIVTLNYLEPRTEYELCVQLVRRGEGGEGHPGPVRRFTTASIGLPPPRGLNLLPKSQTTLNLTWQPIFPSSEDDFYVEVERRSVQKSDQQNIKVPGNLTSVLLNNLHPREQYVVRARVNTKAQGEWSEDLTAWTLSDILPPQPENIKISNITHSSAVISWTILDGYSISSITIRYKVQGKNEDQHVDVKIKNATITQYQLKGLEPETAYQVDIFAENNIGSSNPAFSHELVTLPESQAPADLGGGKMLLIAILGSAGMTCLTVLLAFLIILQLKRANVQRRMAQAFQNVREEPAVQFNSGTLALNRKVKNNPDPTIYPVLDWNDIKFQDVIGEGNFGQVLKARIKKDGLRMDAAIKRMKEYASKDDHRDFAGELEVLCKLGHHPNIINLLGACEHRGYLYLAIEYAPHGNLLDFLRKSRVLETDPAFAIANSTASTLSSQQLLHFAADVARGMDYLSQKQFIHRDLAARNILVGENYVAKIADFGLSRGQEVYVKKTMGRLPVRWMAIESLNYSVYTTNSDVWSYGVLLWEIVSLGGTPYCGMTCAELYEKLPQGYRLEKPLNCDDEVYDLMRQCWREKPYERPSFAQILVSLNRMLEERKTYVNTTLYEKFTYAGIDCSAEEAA
Procedure: Cellular activity of compounds of the present invention as inhibitors of Tie2 kinase activity was measured employing a Tie2 ELISA assay as described in the following paragraphs. Herein CHO cell-cultures, which are stably transfected by known techniques with Tie2 using DHFR deficiency as selection marker, are stimulated by angiopoietin-2. The specific autophosphorylation of Tie2 receptors is quantified with a sandwich-ELISA using anti-Tie2 antibodies for catch and anti-phosphotyrosine antibodies coupled to HRP for detection.
• 96 well tissue culture plate, sterile, Greiner • 96 well FluoroNunc plate MaxiSorp Surface C, Nunc • 96 well plate polypropylene for compound dilution in DMSO • CHO Tie2/DHFR (transfected cells) • PBS−; PBS++, DMSO • MEM alpha Medium with Glutamax-I without Ribonucleosides and • Deoxyribonucleosides (Gibco #32561-029) • with 10% FCS after dialysis! and 1% PenStrep • Lysis buffer: 1 Tablet “Complete” protease inhibitor • 1 cap Vanadate (1 mL>40 mg/mL; working solution 2 mM) • ad 50 mL with Duschl-Puffer • pH 7.6 • Anti-Tie2-antibody 1:425 in Coating Buffer pH 9.6 • Stock solution: 1.275 mg/mL>working: 3 μg/mL • PBST: 2 bottles PBS(10×)+10 ml Tween, fill up with VE-water • RotiBlock 1:10 in VE-water • Anti-Phosphotyrosine HRP-Conjugated 1:10000 in 3% TopBlock • 3% TopBlock in PBST • BM Chemiluminescence ELISA Substrate (POD) • solution B1:100 solution A • SF9 cell culture medium • Ang2-Fc in SF9 cell culture medium Cell Experiment: • Dispense 5×10^4 cells/well/98 μL in 96 well tissue culture plate • Incubate at 37° C./5% CO2 • After 24 h add compounds according to desired concentrations • Add also to control and stimulated values without compounds 2 μL DMSO • And mix for a few min at room temperature • Add 100 μL Ang2-Fc to all wells except control, which receives insect medium • Incubate 20 min at 37° C. • Wash 3× with PBS++ • Add 100 μl Lysis buffer/well and shake a couple of min at room temperature • Store lysates at 20° C. before utilizing for the ELISA Performance of Sandwich-ELISA • Coat 96 well FluoroNunc Plate MaxiSorp Surface C with anti-Tie2 mAb • 1:425 in Coating buffer pH 9.6; 100 μL/well overnight at 4° C. • Wash 2× with PBST • Block plates with 250 μL/well RotiBlock 1:10 in VE-water • Incubate for 2 h at room temperature or overnight at 4° C. shaking • Wash 2× in PBST • Add thawed lysates to wells and incubate overnight shaking at 4° C. • Wash 2× with PBST • Add 100 μL/well anti-Phosphotyrosine HRP-Conjugated 1:10000 in 3% • TopBlock (3% TopBlock in PBST) and incubate overnight under shaking • Wash 6× with PBST • Add 100 μL/well BM Chemiluminescence ELISA Substrate (POD) • solutions 1 und 2 (1:100) • Determine luminescence with the LumiCount. Assay 2: Tie-2-Kinase HTRF-Assay without Kinase Preactivation

SMILES | Selectivity vs. InsR [1] [fold] | IC50 [2] [nM]
CN1CCN(Cc2ccc(NC(=O)Nc3ccc(-c4ccnc5[nH]ncc45)cc3)cc2C(F)(F)F)CC1 [1.33, 1-[4-(4-Methyl-piperazin-1-yl-methyl)-3-trifluoromethyl-phenyl]-3-[4-(1H-pyrazolo[3,4-b]pyridin-4-yl)-phenyl]-urea] | >20 | < 501
Cn1ncc2c(-c3ccc(NC(=O)Nc4cccc(C(F)(F)F)c4)cc3)cc(C3CCC3)nc21 [1.37, 1-[4-(6-Cyclobutyl-1-methyl-1H-pyrazolo[3,4-b]pyridin-4-yl)-phenyl]-3-(3-trifluoromethyl-phenyl)-urea] | >20 | < 501
Cc1cc(-c2ccc(NC(=O)Nc3cccc(C(F)(F)F)c3)cc2)c2cn[nH]c2n1 [1.18, 1-[4-(6-Methyl-1H-pyrazolo[3,4-b]pyridin-4-yl)-phenyl]-3-(3-trifluoromethyl-phenyl)-urea] | >20 | < 501

Other lines, results leading:

Selectivity vs. InsR [1] [fold] | IC50 [2] [nM] | SMILES
>20 | < 501 | Cc1cc(-c2ccc(NC(=O)Nc3cc(F)cc(C(F)(F)F)c3)cc2)c2cnn(C)c2n1 [2.4, 1-[4-(1,6-Dimethyl-1H-pyrazolo[3,4-b]pyridin-4-yl)-phenyl]-3-(3-fluoro-5-trifluoromethyl-phenyl)-urea]
>20 | < 501 | COc1ccc(C(F)(F)F)cc1NC(=O)Nc1ccc(-c2cc(C)nc3c2cnn3C)cc1 [2.7, 1-[4-(1,6-Dimethyl-1H-pyrazolo[3,4-b]pyridin-4-yl)-phenyl]-3-(2-methoxy-5-trifluoromethyl-phenyl)-urea]
